Like-named read-outs stand apart in the source and are kept apart here.
What was measured:
Format in all cases: cell-based, human
[1] = tested on: K-Ras G12C (NCI-H358 cells); assay: Potency assay: pERK in NCI-H358 cells; details: read-out: pERK EC50 (H358 KRAS G12C)
Summary of the method: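 Cells plated the day before were exposed for 4 h at 37° C, 5% CO2 to a 10-point, 3-fold DMSO dilution series (10 mM top stock), in duplicate. Phospho-ERK was read by AlphaLISA SureFire Ultra or by In-Cell Western with DRAQ5 DNA stain, and IC50 came from a 4-parameter sigmoidal fit.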

NCI-H358 (K-Ras G12C) = assay: CellTiter-Glo cell viability assay, NCI-H358
Summary of the method: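 Viability is measured as ATP-dependent luminescence (CellTiter-Glo) five days into compound treatment. Responses are normalized to vehicle (DMSO) wells and fitted by four-parameter logistic regression.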

[2] = tested on: Capan-1 cells (K-Ras G12V); assay: CellTiter-Glo cell viability, Capan-1; details: Homo sapiens, CAPAN-1, 120 h, K-Ras G12V, 5-day treatment; read-out: Capan-1 Cell Viability IC50
Summary of the method: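 Viability is read as luminescence after five days of compound exposure, with plates first equilibrated to room temperature for roughly 30 minutes. Each signal is expressed as a percentage of the mean DMSO control, and curves are fitted by four-parameter logistic regression.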

[3] = Homo sapiens, NCI-H358 cells, 4 hours
[4] = Homo sapiens, NCI-H358, 120 h, 5-day treatment, read-out: H358 Cell Viability assay data (K-Ras G12C, IC50)
[5] = Homo sapiens, NCI-H358, 120 h, read-out: H358 Cell Viability assay data (K-Ras G12C, IC50, uM), 5-day treatment
[6] = 5-day treatment, read-out: H358 Cell Viability assay data (K-Ras G12C, IC50)
[7] = read-out: H358 Cell Viability assay data (K-Ras G12C, IC50), 5-day treatment

Row | SMILES | EC50 [1, 3] [nM] | IC50 (NCI-H358 (K-Ras G12C); [4]) [µM] | also measured
1 | CCn1c(-c2cccnc2[C@H](C)OC)c2c3cc(ccc31)-c1csc(n1)C[C@H](NC(=O)[C@H](C(C)C)N(C)C(=O)N1CC[C@]3(CCN(C)C3=O)C1)C(=O)N1CCC[C@H](N1)C(=O)OCC(C)(C)C2 (single isomer, unassigned) [Compound A461] | < 5000 | < 0.01 | 
2 | C=CC(=O)N1CC[C@H](C(=O)N(C)[C@H](C(=O)N[C@H]2Cc3cc(N)cc(c3)-c3ccc4c(c3)c(c(-c3ccccc3COC)n4CC)CC(C)(C)COC(=O)[C@@H]3CCCN(N3)C2=O)C(C)C)C1 [Compound A2] | < 5000 | > 10 | 
3 | CCn1c(-c2cccnc2[C@H](C)OC)c2c3cc(ccc31)-c1cc(O)cc(c1)C[C@H](NC(=O)[C@H](C(C)C)N(C)C(=O)C1COC1)C(=O)N1CCC[C@H](N1)C(=O)OCC(C)(C)C2 [Compound A18] | < 5000 | 0.1 to 1 | 
4 | C=CC(=O)N1CC[C@H](C(=O)N(C)[C@H](C(=O)N[C@H]2Cc3cc(O)cc(c3)-c3ccc4c(c3)c(c(-c3ccc(CC(=O)O)nc3)n4CC)CC(C)(C)COC(=O)[C@@H]3CCCN(N3)C2=O)C(C)C)C1 [Compound A21] |  |  | EC50 ([1]; Homo sapiens, NCI-H358, 4 h): < 5000 nM; IC50 (NCI-H358 (K-Ras G12C); [5]): > 10 µM
5 | C=CC(=O)N1CC[C@H](C(=O)N(C)[C@H](C(=O)N[C@H]2Cc3cc(O)cc(c3)-c3ccc4c(c3)c(c(-c3ncccc3[C@H](C)OC)n4CC)CC(C)(C)COC(=O)[C@@H]3CCCN(N3)C2=O)C(C)C)C1 [Compound A22] |  |  | EC50 ([1]; Homo sapiens, NCI-H358, 4 h): < 5000 nM; IC50 (NCI-H358 (K-Ras G12C); [5]): 0.01 to 0.1 µM
6 | C=CC(=O)N1CC[C@H](C(=O)N(C)[C@H](C(=O)N[C@H]2Cc3cc(O)cc(c3)-c3ccc4c(c3)c(c(-c3ccccc3CCOC)n4CC)CC(C)(C)COC(=O)[C@@H]3CCCN(N3)C2=O)C(C)C)C1 [Compound A24] | < 5000 | > 10 | 
7 | CCn1c(-c2cnccc2COC)c2c3cc(ccc31)-c1cc(O)cc(c1)C[C@H](NC(=O)[C@H](C(C)C)N(C)C(=O)N1CC(OC)C1)C(=O)N1CCC[C@H](N1)C(=O)OCC(C)(C)C2 [Compound A30] | < 5000 | 0.01 to 0.1 | 
8 | C=CC(=O)N1CC[C@H](C(=O)N(C)[C@H](C(=O)N[C@H]2Cc3cc(O)cc(c3)-c3ccc4c(c3)c(c(-c3ccccc3CCOC)n4C(C)(C)C#N)CC(C)(C)COC(=O)[C@@H]3CCCN(N3)C2=O)C(C)C)C1 [Compound A34] |  |  | EC50 ([1]; NCI-H358 cells, 4 hours): < 5000 nM; IC50 (NCI-H358 (K-Ras G12C); [6]): 0.01 to 0.1 µM
9 | CCn1c(-c2cnccc2COC)c2c3cc(ccc31)-c1cc(O)cc(c1)C[C@H](NC(=O)[C@H](C(C)C)N(C)C(=O)CN1CCOCC1)C(=O)N1CCC[C@H](N1)C(=O)OCC(C)(C)C2 [Compound A65] | < 5000 | 0.1 to 1 | 
10 | CCn1c(-c2ccccc2CCOC)c2c3cc(ccc31)-c1cc(O)cc(c1)C[C@H](NC(=O)[C@H](C(C)C)N(C)C(=O)CCN)C(=O)N1CCC[C@H](N1)C(=O)OCC(C)(C)C2 [Compound A70] | < 5000 | 0.01 to 0.1 | 
11 | CCn1c(-c2cnccc2COC)c2c3cc(ccc31)-c1cc(O)cc(c1)C[C@H](NC(=O)[C@H](C(C)C)N(C)CC(F)(F)F)C(=O)N1CCC[C@H](N1)C(=O)OCC(C)(C)C2 [Compound A77] | < 5000 | 0.01 to 0.1 | 
12 | CCn1c(-c2cnccc2COC)c2c3cc(ccc31)-c1cc(O)cc(c1)C[C@H](NC(=O)[C@H](C(C)C)N(C)C(=O)[C@@H]1CN(C(C)=O)C[C@@H]1C(F)(F)F)C(=O)N1CCC[C@H](N1)C(=O)OCC(C)(C)C2 [Compound A80] | < 5000 | 0.1 to 1 | 
13 | CCn1c(-c2cnccc2COC)c2c3cc(ccc31)-c1cc(O)cc(c1)C[C@H](NC(=O)[C@H](C(C)C)N(C)C(=O)[C@@H]1CCCO1)C(=O)N1CCC[C@H](N1)C(=O)OCC(C)(C)C2 [Compound A91] | < 5000 | < 0.01 | 
14 | CCn1c(-c2cccnc2[C@H](C)OC)c2c3cc(ccc31)-c1cc(O)cc(c1)C[C@H](NC(=O)[C@H](C(C)C)N(C)C(=O)[C@H]1CCN(C(=O)CN(C)C)C1)C(=O)N1CCC[C@H](N1)C(=O)OCC(C)(C)C2 [Compound A95] | < 5000 | 0.01 to 0.1 | 
15 | CC#CC(=O)N1CC[C@H](C(=O)N(C)[C@H](C(=O)N[C@H]2Cc3cc(O)cc(c3)-c3ccc4c(c3)c(c(-c3cccnc3[C@H](C)OC)n4CC)CC(C)(C)COC(=O)[C@@H]3CCCN(N3)C2=O)C(C)C)C1 [Compound A145, (2S)-2-{1-[(3S)-1-(but-2-ynoyl)pyrrolidin-3-yl]-N-methylformamido}-N-[(8S,14S,20M)-22-ethyl-4-hydroxy-21-{2-[(1S)-1-methoxyethyl]pyridin-3-yl}-18, 18-dimethyl-9,15-dioxo-16-oxa-10,22,28-triazapentacyclo [18.5.2.1^2,6.1^10,14.0^23,27]nonacosa-1 (26),2,4,6 (29),20,23 (27),24-heptaen-8-yl]-3-methylbutanamide] |  |  | EC50 ([1]; Homo sapiens, NCI-H358, 4 h): < 5000 nM; IC50 (NCI-H358 (K-Ras G12C); [5]): < 0.01 µM; IC50 (NCI-H358 (K-Ras G12C); [7]): 0.01 to 0.1 µM
16 | CCn1c(-c2cccnc2[C@H](C)OC)c2c3cc(ccc31)-c1cc(O)cc(c1)C[C@H](NC(=O)[C@H](C(C)C)N(C)C(=O)C13CNCC1C3)C(=O)N1CCC[C@H](N1)C(=O)OCC(C)(C)C2 (stereo partly drawn) [Compound A155] | < 5000 | < 0.01 | IC50 (NCI-H358 (K-Ras G12C); [6]): 0.01 to 0.1 µM
17 | CCn1c(-c2cccnc2[C@H](C)OC)c2c3cc(ccc31)-c1cc(O)cc(c1)C[C@H](NC(=O)[C@H](C(C)C)N(C)C(=O)C1CC13CC3)C(=O)N1CCC[C@H](N1)C(=O)OCC(C)(C)C2 (stereo partly drawn) [Compound A156] | < 5000 | 0.01 to 0.1 | 
18 | CC#CC(=O)N1CC[C@H](C(=O)N(C)[C@@H](C(=O)N[C@H]2Cc3cc(O)cc(c3)-c3ccc4c(c3)c(c(-c3cccnc3[C@H](C)OC)n4CC)CC(C)(C)COC(=O)[C@@H]3CCCN(N3)C2=O)C(C)C)C1 [Compound A199] |  |  | EC50 ([1]; Homo sapiens, NCI-H358, 4 h): < 5000 nM; IC50 (NCI-H358 (K-Ras G12C); [7]): 0.1 to 1 µM
19 | CCn1c(-c2cccnc2[C@H](C)OC)c2c3cc(ccc31)-c1cccc(c1)C[C@H](NC(=O)[C@H](C(C)C)N(C)C(=O)[C@H]1CCN(C(=O)/C=C/CN3CC(OC)C3)C1)C(=O)N1CCC[C@H](N1)C(=O)OCC(C)(C)C2 [Compound A203] |  |  | EC50 ([1]; NCI-H358 cells, 4 hours): < 5000 nM; IC50 (NCI-H358 (K-Ras G12C); [6]): > 10 µM
20 | CCn1c(-c2cccnc2[C@H](C)OC)c2c3cc(ccc31)-c1cccc(c1)C[C@H](NC(=O)[C@H](C(C)C)N(C)C(=O)[C@H]1CCN(C(=O)/C=C/CN3CC(OC)C3)C1)C(=O)N1CCC[C@H](N1)C(=O)OCC(C)(C)C2 [Compound A204] | < 5000 |  | IC50 (NCI-H358 (K-Ras G12C); [6]): 0.01 to 0.1 µM
21 | CCn1c(-c2cccnc2[C@H](C)OC)c2c3cc(ccc31)-c1cc(O)cc(c1)C[C@H](NC(=O)[C@H](C(C)C)N(C)C(=O)C1(CO)CC1)C(=O)N1CCC[C@H](N1)C(=O)OCC(C)(C)C2 [Compound A232] | < 5000 | 0.01 to 0.1 | 
22 | C=CC(=O)N1CC[C@H](C(=O)N(C)[C@H](C(=O)N[C@H]2Cc3cc(sn3)-c3ccc4c(c3)c(c(-c3cccnc3[C@H](C)OC)n4CC)CC(C)(C)COC(=O)[C@@H]3CCCN(N3)C2=O)C(C)C)C1 [Compound A340] | < 5000 | 0.1 to 1 | 
23 | CCn1c(-c2cccnc2[C@H](C)OC)c2c3cc(ccc31)-c1cc(O)cc(c1)C[C@H](NC(=O)[C@H](C(C)C)N(C)C(=O)[C@H]1CCN(C(=O)[C@@H]3CCCN3C)C1)C(=O)N1CCC[C@H](N1)C(=O)OCC(C)(C)C2 [Compound A385] | < 5000 | < 0.01 | 
24 | CCn1c(-c2cccnc2[C@H](C)OC)c2c3cc(ccc31)-c1csc(n1)C[C@H](NC(=O)[C@H](C(C)C)N(C)C(=O)N1CC[C@@H]1CN(C)C)C(=O)N1CCC[C@H](N1)C(=O)OCC(C)(C)C2 [Compound A502] | < 5000 | < 0.01 | IC50 [2]: 100 to 1000 nM
25 | CCn1c(-c2cccnc2[C@H](C)OC)c2c3cc(ccc31)-c1csc(n1)C[C@H](NC(=O)[C@H](C(C)C)N(C)C(=O)N1CC3(CC(O)C3)C1)C(=O)N1CCC[C@H](N1)C(=O)OCC(C)(C)C2 [Compound A510] | < 5000 | 0.01 to 0.1 | 
26 | CCn1c(-c2cccnc2[C@H](C)OC)c2c3cc(ccc31)-c1csc(n1)C[C@H](NC(=O)[C@H](C(C)C)N(C)C(=O)N1CCN3CCOC[C@H]3C1)C(=O)N1CCC[C@H](N1)C(=O)OCC(C)(C)C2 [Compound A548] |  | 0.1 to 1 | IC50 [2]: 10 to 100 nM
27 | CCn1c(-c2cccnc2[C@H](C)OC)c2c3cc(ccc31)-c1csc(n1)C[C@H](NC(=O)[C@H](C(C)C)N(C)C(=O)N1CC(N(C)S(C)(=O)=O)C1)C(=O)N1CCC[C@H](N1)C(=O)OCC(C)(C)C2 [Compound A550] | < 5000 | < 0.01 | 
